Source: PubChem BioAssay (NCI)
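Exposure lasted 48 hours, with cells grown in 96-well plates and compounds tested at five concentrations. TGI: total growth inhibition.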

Assays:
Test in all cases: growth of human tumour cells (NCI), 48 h
[1] = test system: ACHN renal
[2] = test system: COLO 205 colon
[3] = test system: EKVX NSCLC
[4] = test system: HCC-2998 colon
[5] = test system: KM12 colon
[6] = test system: M14 melanoma
[7] = test system: MCF7 breast
[8] = test system: MDA-MB-231 breast
[9] = test system: MDA-MB-435
[10] = test system: MOLT-4 leukemia
[11] = test system: NCI-H226 lung
[12] = test system: NCI-H460 lung
[13] = test system: OVCAR-8 ovarian
[14] = test system: SK-MEL-28 melanoma
[15] = test system: SR leukemia
[16] = test system: UO-31 renal

Compound | TGI [1] | TGI [2] | TGI [3] | TGI [4] | TGI [5] | TGI [6] | TGI [7] | TGI [8] | TGI [9] | TGI [10] | TGI [11] | TGI [12] | TGI [13] | TGI [14] | TGI [15] | TGI [16]
c1csc(-c2ccc(-c3ccsc3)s2)c1 | > 100 µM | > 100 µM | > 100 µM | > 100 µM | > 100 µM | > 100 µM | > 100 µM | > 100 µM | > 100 µM | > 100 µM | > 100 µM | > 100 µM | > 100 µM | > 100 µM | > 100 µM | > 100 µM
Nc1cccc(/C=C/CN2CCN(CCOC(c3ccccc3)c3ccccc3)CC2)c1 | 32.2 µM | 20.9 µM | 32 µM | 11.9 µM | 25.4 µM | 25.9 µM | 29.4 µM | 30.3 µM | 28.1 µM | 19.2 µM | 40.4 µM | 27.7 µM | 30.1 µM | 27.1 µM | 17.4 µM | 27.4 µM
COc1ccc(C(=O)/C=C/c2ccc(OCC#N)cc2)cc1OC | 76.1 µM | 24.2 µM | 36 µM | 33.3 µM | 18.5 µM | 37.3 µM | 16 µM | 42.2 µM | 44.7 µM | 63.6 µM | 37.9 µM | > 100 µM | > 100 µM | 29.5 µM | 61.2 µM | 32.6 µM
CC(C)(C)OC(=O)N(CCCCNC(=O)c1ccccc1)CCCNC(=O)c1ccccc1 | > 100 µM | > 100 µM | > 100 µM | > 100 µM | > 100 µM | > 100 µM | > 100 µM | > 100 µM | > 100 µM | > 100 µM | > 100 µM | > 100 µM | > 100 µM | > 100 µM | > 100 µM | > 100 µM
CC(=O)c1c2c(cc3c1CC1(C3)Cc3ccc4c(c3C1=O)CCC4)CCC2 (stereo not given) | > 100 µM | 39.3 µM | 96 µM | > 100 µM | > 100 µM | > 100 µM | > 100 µM | > 100 µM | 32.8 µM | > 100 µM | > 100 µM | > 100 µM | > 100 µM | > 100 µM | 64 µM | > 100 µM
CC(C)CNC(=O)c1c(NC(=O)c2ccccc2)sc2[nH]c(=O)n(-c3ccccc3)c(=O)c12 | 61 µM | > 100 µM | > 100 µM | > 100 µM | > 100 µM | > 100 µM | > 100 µM | 52.6 µM | > 100 µM | > 100 µM | > 100 µM | > 100 µM | > 100 µM | > 100 µM | > 90.7 µM | > 100 µM
Cn1c2c(c3ccccc31)CC(=O)N1CCCC(C1)CC21OCCO1 (stereo not given) | > 100 µM | > 100 µM | > 100 µM | > 100 µM | > 100 µM | > 100 µM | > 100 µM | > 100 µM | > 100 µM | > 100 µM | > 100 µM | > 100 µM | > 100 µM | > 100 µM | > 100 µM | > 100 µM
COC(=O)c1ccc(-n2c(C)nc(=O)c(-c3ccccc3)c2C)cc1 | > 100 µM | > 100 µM | > 100 µM | > 100 µM | > 100 µM | > 100 µM | > 100 µM | > 100 µM | > 100 µM | > 100 µM | > 100 µM | > 100 µM | > 100 µM | > 100 µM | > 100 µM | > 100 µM
C=CCC1(O)C(=O)OC2C(O)COC21O (stereo not given) | > 100 µM | > 100 µM | > 100 µM | > 100 µM | > 100 µM | > 100 µM | > 100 µM | > 100 µM | > 100 µM | > 100 µM | > 100 µM | > 100 µM | > 100 µM | > 100 µM | > 100 µM | > 100 µM
CCSC1=C(C#N)C2(CCCCC2)C2=C(CC(C)(C)CC2=O)N1 | 74.2 µM | > 100 µM | 68.4 µM | > 100 µM | > 100 µM | > 100 µM | > 100 µM | > 100 µM | > 100 µM | > 100 µM | > 100 µM | 21.2 µM | > 100 µM | > 100 µM | > 100 µM | 39.8 µM
CC(=O)[C@H]1[C@@H](OCc2ccccc2)O[N+]([O-])=C(C)[C@@H]1c1ccccc1 | 78.4 µM | > 100 µM | > 100 µM | > 100 µM | > 100 µM | > 100 µM | > 100 µM | > 100 µM | > 100 µM | 41.2 µM | > 100 µM | > 100 µM | > 100 µM | 98.4 µM | 42 µM | 40.2 µM
COc1ccc2[nH]c3c(C)c4ccnc(NCCCN(C)CCCN)c4c(C)c3c2c1 | 0.514 µM | 0.253 µM | 0.538 µM | 0.376 µM | 0.809 µM | 0.335 µM | 0.313 µM | 0.248 µM | 0.401 µM | > 100 µM | 0.223 µM | 0.213 µM | 0.376 µM | 1.61 µM | > 100 µM | 3.23 µM
Cc1ccc(S(=O)(=O)Nn2c(C)cc3ccc(S(=O)(=O)Nc4ccccc4[N+](=O)[O-])cc3c2=O)cc1 | > 100 µM | 44.1 µM | > 100 µM | > 100 µM | > 100 µM | > 100 µM | > 100 µM | > 100 µM | > 100 µM | > 100 µM | > 100 µM | > 100 µM | > 100 µM | > 100 µM | > 100 µM | > 100 µM
O=C(O)c1cccc(S(=O)(=O)NN2C(=O)CSC2c2ccccc2Cl)c1 (stereo not given) | > 100 µM | > 100 µM | > 100 µM | > 100 µM | > 100 µM | > 100 µM | > 100 µM | > 100 µM | > 100 µM | > 100 µM | > 100 µM | > 100 µM | > 100 µM | > 100 µM | > 100 µM | > 100 µM
NC(CCC(=O)NC(CSC(=O)N(O)c1ccc(Cl)cc1)C(=O)NCC(=O)O)C(=O)O (stereo not given) | > 0.5 µM | > 0.5 µM | > 0.5 µM | > 0.5 µM | > 0.5 µM | > 0.5 µM | > 0.5 µM | > 0.5 µM | > 0.5 µM | > 0.5 µM | > 0.5 µM | > 0.5 µM | > 0.5 µM | > 0.5 µM | > 0.5 µM | > 0.5 µM
